From US20230330251A1, “METHODS FOR TREATING CANCERS WITH ANTIBODY DRUG CONJUGATES (ADC) THAT BIND TO 191P4D12 PROTEINS” (AGENSYS, INC., priority 2020, published 2023)
Non-standard residues stand in square brackets, D forms with d. Residues, ends and D or L forms follow the SMILES beside them. *: point of attachment. Dolaproine = CO[C@@H]([C@@H]1CCCN1)[C@@H](C)C(=O)O; Dil = CC[C@H](C)[C@H](NC)[C@@H](CC(=O)O)OC; X1 = C[C@@H](N*)[C@@H](O)c1ccccc1; NMeV = CN[C@H](C(=O)O)C(C)C

How the values were obtained:
[1] = system: acute myeloid leukemia (AML) at relapse; conditions: administered alone; cited from earlier work
subjects = conditions: cited from earlier work
urothelial cancer = conditions: second line treatment; best supportive care 4.6 months; cited from earlier work
[2] = Phase 1 study of EV: pharmacokinetics; format: in vivo, human; conditions: EV dosing on Days 1, 8 and 15 of every 28-day cycle
Description: Based on pharmacokinetic data from the phase 1 study, the half-life of EV is ˜1-2 days. […] Minimal (<50%) intra-cycle accumulation of MMAE was observed. It is anticipated that the dosing schedule in the study will maintain ADC exposures over each 28-day cycle, contributing to a favorable balance of activity and safety, as observed in the phase 1 trial.

[3] = system: locally advanced or metastatic urothelial cancer; conditions: second line, KEYNOTE-045; cited from earlier work
PD-1 = PD-1 (Homo sapiens, UniProt Q15116); conditions: cited from earlier work
PD-1, sequence (Q15116 25-288): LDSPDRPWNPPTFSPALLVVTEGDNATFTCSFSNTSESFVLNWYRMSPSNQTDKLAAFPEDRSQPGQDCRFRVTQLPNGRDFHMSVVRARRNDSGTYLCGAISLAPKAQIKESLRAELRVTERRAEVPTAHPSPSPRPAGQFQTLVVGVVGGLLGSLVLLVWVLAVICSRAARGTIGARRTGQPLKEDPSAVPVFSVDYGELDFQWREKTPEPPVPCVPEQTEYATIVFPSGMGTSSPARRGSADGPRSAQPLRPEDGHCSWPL

## CT-011: anti-PD-1 antibody, a humanized antibody
[1]
  response in acute myeloid leukemia (AML) at relapse: failed to show response

## CC[C@]12C=CCN3CC[C@@]4(c5cc([C@@]6(C(=O)OC)C[C@@H]7C[C@@H](C(C)(F)F)CN(Cc8c6[nH]c6ccccc86)C7)c(OC)cc5N(C)[C@H]4[C@@](O)(C(=O)OC)[C@@H]1OC(C)=O)[C@@H]32 [Vinflunine, vinflunine]
subjects; after administration of vinflunine
  Cases of Posterior Reversible Encephalopathy Syndrome (PRES): have been observed
Urothelial cancer
  Median OS: 6.9 months

## CC[C@H](C)[C@@H]([C@@H](CC(=O)N1CCC[C@H]1[C@H](OC)[C@@H](C)C(=O)N[C@H](C)[C@@H](O)c1ccccc1)OC)N(C)C(=O)[C@@H](NC(=O)[C@@H](NC)C(C)C)C(C)C [MMAE, monomethyl auristatin E, reference compound] (H-[NMeV]V[Dil][Dolaproine]-X1)
[2]
  intra-cycle accumulation of MMAE: < 50%

## pembrolizumab: humanized monoclonal IgG4 anti-PD-1 antibody
[3]
  Median OS: 10.3 months

## CC(=O)O[C@@]12CO[C@@H]1C[C@H](O)[C@@]1(C)C(=O)[C@H](O)C3=C(C)[C@@H](OC(=O)[C@H](O)[C@@H](NC(=O)OC(C)(C)C)c4ccccc4)C[C@@](O)([C@@H](OC(=O)c4ccccc4)[C@H]21)C3(C)C [Docetaxel, docetaxel]
subjects; in vivo
  fluid retention following docetaxel therapy: Severe fluid retention has been reported

## BGB-A317: anti-PD-1 monoclonal antibody in which the ability to bind Fc gamma receptor I is engineered out
PD-1
  binding to PD-1: high affinity
